The text below walks through data of patent US20040235012A1, “Method of detecting antibiotic resistance in microorganisms” (priority 2003, published 2004).

The subject of experiment [1] is low-level resistant strains (MRSA). To be noted: cited from earlier work.
Experiment [2] concerns S. aureus strains. The experiment is described as follows: E-Test MIC of oxacillin. It is filed as cell-based. To be noted: Staphylococcus aureus.

Regarding `Cc1onc(-c2ccccc2)c1C(=O)N[C@@H]1C(=O)N2[C@@H]1SC(C)(C)[C@@H]2C(=O)O` [OX, oxacillin], the “oxacillin MIC of low-level resistant strains, at or just above the susceptible breakpoint” value in experiment [1] was 4 to 8 µg/mL. Further, the MIC in experiment [2] (strain 31 (mecA −, PBP2 −)) is 0.25 µg/mL; in experiment [2] (strain 34 (mecA +, PBP2 +)), 16 µg/mL; in experiment [2] (strain 2325 (mecA −, PBP2 −)), 0.19 µg/mL; in experiment [2] (strain 3421 (mecA +)), above 4 µg/mL; in experiment [2] (strain 3424 (mecA −, PBP2 −)), 1.5 µg/mL; in experiment [2] (strain 3425 (mecA −, PBP2 −)) it was 0.38 µg/mL. Besides, the MIC in experiment [2] (strain 5594 (mecA +, PBP2 +)) was 0.38 µg/mL; in experiment [2] (strain 5595 (mecA +, PBP2 +)), 0.5 µg/mL; in experiment [2] (strain 5596 (mecA +, PBP2 +)), 0.5 µg/mL; in experiment [2] (strain 5597 (mecA +, PBP2 +)), 32 µg/mL; in experiment [2] (strain 5598 (mecA +, PBP2 +)) it was 32 µg/mL; in experiment [2] (strain 5599 (mecA +, PBP2 +)), 16 µg/mL. The MIC worked out at 8 µg/mL in experiment [2] (strain T775 (mecA +, PBP2 +)); 32 µg/mL in experiment [2] (strain T2109 (mecA +, PBP2 +)); 8 µg/mL in experiment [2] (strain T2110 (mecA +, PBP2 +)); 32 µg/mL in experiment [2] (strain T2130 (mecA +, PBP2 +)); 6 µg/mL in experiment [2] (strain T4031 (mecA +, PBP2 +)); 1.5 µg/mL in experiment [2] (strain T4033 (mecA +, PBP2 +)). Further, in experiment [2] (strain T4035 (mecA +, PBP2 +)), the MIC stood at 8 µg/mL.
